In ChEMBL document CHEMBL1201862, “PubChem BioAssay data set” (2004):
Active and inactive are the calls of the source.

What was measured:
Ephrin type-A receptor 4 = Ephrin type-A receptor 4 (Mus musculus, UniProt Q03137); assay: inhibitors of EphA4 binding to KYL peptide, primary screen, biochemical, colorimetric, mouse EphA4 (AID 689); type: functional
Prothrombin = Prothrombin (Homo sapiens, UniProt P00734); assay: Thrombin 1536 HTS Dose Response Confirmation. [Related pubchem assays: 1046 (Thrombin 1536 HTS; hits were confirmed in this assay)]; type: functional
[1] = molecular target: T1, Trace amine-associated receptor 1 (Homo sapiens, UniProt Q96RJ0); assay: Counterscreen for agonists of the human trace amine associated receptor 1 (hTAAR1): Fluorescence-based cell-based high throughput dose response assay to identify hTAAR1 agonist that also desensitize TAAR1 receptor response.; type: functional
T1 sequence (Q96RJ0 whole entry): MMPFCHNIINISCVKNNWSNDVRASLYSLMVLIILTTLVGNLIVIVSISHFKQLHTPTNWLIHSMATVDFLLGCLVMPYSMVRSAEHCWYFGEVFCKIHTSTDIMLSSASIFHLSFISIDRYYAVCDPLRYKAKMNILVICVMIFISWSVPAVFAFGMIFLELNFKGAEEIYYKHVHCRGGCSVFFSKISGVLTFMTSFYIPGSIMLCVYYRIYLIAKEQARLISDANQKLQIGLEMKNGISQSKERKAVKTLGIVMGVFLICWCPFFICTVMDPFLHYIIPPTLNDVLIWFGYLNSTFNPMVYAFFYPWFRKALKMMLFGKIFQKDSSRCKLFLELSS

[2] = molecular target: T1, Trace amine-associated receptor 1; assay: Fluorescence-based cell-based high throughput dose response assay to identify agonists of the human trace amine associated receptor 1 (TAAR1).; type: functional
cells [3] = type: functional, cell-based
cells [4] = type: functional, cell-based; remark: listed apart in the source
[5] = CEM21 lymphoblast cell cytotoxicity, dose response, cytotoxicity control for viral fusion inhibitor project, CellTiter-Glo luminescence, cherry-picked (AID 652042); type: functional, cell-based;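 also: potency for signal decrease meaning cytotoxicity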
[6] = inhibitors of clade B AD8 Env fusion, dose response, cell-based, cherry-pick (AID 652062); type: functional;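 also: luciferase signal from cell-cell fusion driven by HIV-1 clade B AD8 Env; potency is for inhibitors of fusion seen as a drop in luminescence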
[7] = ZM109 Env clade C HIV-1 fusion inhibitors, dose response, HeLa effector, CEM target cells, luciferase, cherry-pick (AID 652058); type: functional, cell-based
[8] = inhibitors of HIV Env-driven cell fusion, dose response, cherry-pick (AID 652057); type: functional, cell-based
[9] = off-target signal loss in HeLa-CEM21 co-culture – HeLa F-luc CTL cells, cherry-picked, counter-screen for HIV-1 Env fusion inhibitor project, dose response (AID 652040); type: functional, cell-based;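 also: potency for signal decrease marking cytotoxic or nonspecific inhibition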
[10] = molecular target: T2, Voltage-gated N-type calcium channel alpha-1B subunit/Amyloid beta A4 precursor protein-binding family A member 1 (Homo sapiens, UniProt Q00975+Q02410); type: protein assay
[11] = molecular target: T2, Voltage-gated N-type calcium channel alpha-1B subunit/Amyloid beta A4 precursor protein-binding family A member 1; type: protein assay; remark: listed apart in the source
[12] = molecular target: T3, Polyadenylate-binding protein 1 (Homo sapiens, UniProt P11940); assay: PABP1 MLLE–PAM2 binding inhibitor potency, dose response, biochemical, fluorescence polarization, FITC-PAM2 peptide (AID 602259); type: functional; settings: read-out: IC50_Mean
[13] = molecular target: T3, Polyadenylate-binding protein 1; assay: PABP1 MLLE–PAM2 interaction inhibitors, dose response, miRNA deadenylation inhibitor project, biochemical, fluorescence polarization, Cy5-PAM2 peptide, secondary (AID 602260); type: functional; settings: read-out: IC50_Mean
[14] = molecular target: T4, Long-chain-fatty-acid--AMP ligase FadD28 (Mycobacterium tuberculosis, UniProt P9WQ59); assay: Fluorescence polarization aasay to screen for inhibitors that compete for the binding of FadD28 to a bisubstrate Measured in Biochemical System Using Plate Reader - 2147-01_Inhibitor_Dose_CherryPick_Activity.; type: functional, Mycobacterium tuberculosis H37Rv
T4 sequence (P9WQ59 whole entry): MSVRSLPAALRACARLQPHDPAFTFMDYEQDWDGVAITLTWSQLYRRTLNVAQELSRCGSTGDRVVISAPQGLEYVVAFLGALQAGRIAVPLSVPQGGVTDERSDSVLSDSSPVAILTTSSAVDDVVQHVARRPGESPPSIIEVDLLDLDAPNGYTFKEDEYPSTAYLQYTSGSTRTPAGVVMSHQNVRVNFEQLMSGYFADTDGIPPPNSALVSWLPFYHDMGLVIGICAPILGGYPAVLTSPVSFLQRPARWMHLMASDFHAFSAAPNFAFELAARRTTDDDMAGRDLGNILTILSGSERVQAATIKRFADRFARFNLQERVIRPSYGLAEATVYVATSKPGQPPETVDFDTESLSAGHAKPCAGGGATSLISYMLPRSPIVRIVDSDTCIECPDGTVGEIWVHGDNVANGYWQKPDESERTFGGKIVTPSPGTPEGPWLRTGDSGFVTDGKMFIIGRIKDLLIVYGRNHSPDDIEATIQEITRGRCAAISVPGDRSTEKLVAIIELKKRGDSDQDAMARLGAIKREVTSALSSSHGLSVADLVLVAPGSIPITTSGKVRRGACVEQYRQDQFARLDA

[15] = molecular target: Glucose-6-phosphate 1-dehydrogenase (Homo sapiens, UniProt P11413); assay: human G6PD enzyme inhibitors, dose response, selectivity assay for P. falciparum G6PD inhibitor project, biochemical, fluorescence (AID 504792); type: functional
[16] = molecular target: DNA dC->dU-editing enzyme APOBEC-3A (Homo sapiens, UniProt P31941); assay: APOBEC3A DNA deaminase inhibitors, dose response, biochemical (AID 504722); type: functional
[17] = molecular target: DNA dC->dU-editing enzyme APOBEC-3G (Homo sapiens, UniProt Q9HC16); assay: Dose Response confirmation of small molecule APOBEC3G DNA Deaminase Inhibitors via a fluorescence-based single-stranded DNA deaminase assay. [Related pubchem assays (depositor defined):AID493012, AID493028]; type: functional
Chain of DNA dC->dU-editing enzyme APOBEC-3G (Q9HC16 whole entry): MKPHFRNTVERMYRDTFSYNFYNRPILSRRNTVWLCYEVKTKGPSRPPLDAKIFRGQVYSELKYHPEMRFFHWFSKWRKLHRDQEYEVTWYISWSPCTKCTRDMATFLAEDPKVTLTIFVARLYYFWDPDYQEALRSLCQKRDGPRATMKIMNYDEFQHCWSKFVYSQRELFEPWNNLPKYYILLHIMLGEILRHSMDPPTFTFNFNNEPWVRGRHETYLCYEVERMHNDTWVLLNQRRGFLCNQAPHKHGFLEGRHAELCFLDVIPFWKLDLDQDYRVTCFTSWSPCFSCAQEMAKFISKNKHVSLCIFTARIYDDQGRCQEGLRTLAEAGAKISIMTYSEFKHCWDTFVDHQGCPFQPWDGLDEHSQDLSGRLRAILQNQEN

T2 sequence (Q00975 whole entry): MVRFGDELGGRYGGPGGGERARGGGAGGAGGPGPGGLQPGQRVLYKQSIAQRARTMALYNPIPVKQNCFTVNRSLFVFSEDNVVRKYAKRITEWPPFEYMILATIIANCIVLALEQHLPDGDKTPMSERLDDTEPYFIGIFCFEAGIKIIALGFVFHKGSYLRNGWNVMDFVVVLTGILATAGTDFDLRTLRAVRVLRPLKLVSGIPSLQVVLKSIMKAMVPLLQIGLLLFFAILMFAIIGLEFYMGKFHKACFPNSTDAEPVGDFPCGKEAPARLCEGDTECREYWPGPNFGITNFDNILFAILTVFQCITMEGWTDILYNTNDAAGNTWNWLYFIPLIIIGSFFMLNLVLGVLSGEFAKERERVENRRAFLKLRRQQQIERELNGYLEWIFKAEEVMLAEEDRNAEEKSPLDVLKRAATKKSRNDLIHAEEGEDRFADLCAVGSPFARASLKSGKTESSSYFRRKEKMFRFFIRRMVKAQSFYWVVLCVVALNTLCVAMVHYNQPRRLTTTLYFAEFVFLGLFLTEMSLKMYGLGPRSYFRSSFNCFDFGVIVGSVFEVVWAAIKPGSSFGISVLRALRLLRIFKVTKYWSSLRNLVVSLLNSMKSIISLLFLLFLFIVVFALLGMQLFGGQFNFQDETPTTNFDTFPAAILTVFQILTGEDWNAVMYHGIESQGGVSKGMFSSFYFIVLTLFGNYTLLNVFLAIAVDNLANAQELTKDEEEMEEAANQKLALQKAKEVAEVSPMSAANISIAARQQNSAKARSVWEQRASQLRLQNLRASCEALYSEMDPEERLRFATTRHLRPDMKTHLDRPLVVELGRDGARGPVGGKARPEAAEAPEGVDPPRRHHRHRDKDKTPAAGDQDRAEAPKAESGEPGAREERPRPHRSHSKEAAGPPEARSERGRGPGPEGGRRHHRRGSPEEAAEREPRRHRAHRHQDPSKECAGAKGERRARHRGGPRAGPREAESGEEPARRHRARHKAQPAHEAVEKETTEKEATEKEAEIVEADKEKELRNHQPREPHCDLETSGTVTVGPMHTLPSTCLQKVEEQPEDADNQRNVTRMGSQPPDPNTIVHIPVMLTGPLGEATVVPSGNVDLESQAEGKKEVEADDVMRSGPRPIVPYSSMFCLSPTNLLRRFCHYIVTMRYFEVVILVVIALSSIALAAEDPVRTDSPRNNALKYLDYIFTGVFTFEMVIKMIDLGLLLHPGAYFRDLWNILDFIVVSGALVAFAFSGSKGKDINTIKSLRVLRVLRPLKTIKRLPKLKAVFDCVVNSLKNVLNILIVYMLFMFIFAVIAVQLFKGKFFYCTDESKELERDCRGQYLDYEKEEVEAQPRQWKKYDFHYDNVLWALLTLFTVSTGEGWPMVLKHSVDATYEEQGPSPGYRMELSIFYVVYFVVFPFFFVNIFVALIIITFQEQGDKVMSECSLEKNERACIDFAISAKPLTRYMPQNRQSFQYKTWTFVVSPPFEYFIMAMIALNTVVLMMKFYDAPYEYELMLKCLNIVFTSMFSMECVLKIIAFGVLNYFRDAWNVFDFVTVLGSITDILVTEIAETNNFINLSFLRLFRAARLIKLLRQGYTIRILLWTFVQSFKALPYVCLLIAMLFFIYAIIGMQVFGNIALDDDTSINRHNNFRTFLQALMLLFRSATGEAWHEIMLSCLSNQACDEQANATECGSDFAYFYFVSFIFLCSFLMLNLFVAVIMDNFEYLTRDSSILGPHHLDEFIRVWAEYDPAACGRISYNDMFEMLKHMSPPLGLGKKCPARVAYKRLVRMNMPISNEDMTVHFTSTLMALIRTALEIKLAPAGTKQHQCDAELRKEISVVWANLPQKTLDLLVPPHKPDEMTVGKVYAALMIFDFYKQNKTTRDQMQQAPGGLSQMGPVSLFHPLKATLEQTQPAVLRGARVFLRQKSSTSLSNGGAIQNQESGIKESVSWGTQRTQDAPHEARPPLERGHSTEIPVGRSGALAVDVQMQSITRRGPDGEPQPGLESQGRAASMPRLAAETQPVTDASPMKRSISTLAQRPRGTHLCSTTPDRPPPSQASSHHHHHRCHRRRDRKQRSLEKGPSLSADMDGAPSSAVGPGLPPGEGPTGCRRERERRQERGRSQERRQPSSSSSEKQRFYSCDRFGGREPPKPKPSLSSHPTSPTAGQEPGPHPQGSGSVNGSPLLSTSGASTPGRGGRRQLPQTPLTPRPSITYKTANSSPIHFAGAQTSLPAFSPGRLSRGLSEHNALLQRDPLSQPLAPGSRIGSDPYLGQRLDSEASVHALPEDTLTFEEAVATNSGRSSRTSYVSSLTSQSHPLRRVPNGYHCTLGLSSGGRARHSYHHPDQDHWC
T2 sequence (Q02410 whole entry): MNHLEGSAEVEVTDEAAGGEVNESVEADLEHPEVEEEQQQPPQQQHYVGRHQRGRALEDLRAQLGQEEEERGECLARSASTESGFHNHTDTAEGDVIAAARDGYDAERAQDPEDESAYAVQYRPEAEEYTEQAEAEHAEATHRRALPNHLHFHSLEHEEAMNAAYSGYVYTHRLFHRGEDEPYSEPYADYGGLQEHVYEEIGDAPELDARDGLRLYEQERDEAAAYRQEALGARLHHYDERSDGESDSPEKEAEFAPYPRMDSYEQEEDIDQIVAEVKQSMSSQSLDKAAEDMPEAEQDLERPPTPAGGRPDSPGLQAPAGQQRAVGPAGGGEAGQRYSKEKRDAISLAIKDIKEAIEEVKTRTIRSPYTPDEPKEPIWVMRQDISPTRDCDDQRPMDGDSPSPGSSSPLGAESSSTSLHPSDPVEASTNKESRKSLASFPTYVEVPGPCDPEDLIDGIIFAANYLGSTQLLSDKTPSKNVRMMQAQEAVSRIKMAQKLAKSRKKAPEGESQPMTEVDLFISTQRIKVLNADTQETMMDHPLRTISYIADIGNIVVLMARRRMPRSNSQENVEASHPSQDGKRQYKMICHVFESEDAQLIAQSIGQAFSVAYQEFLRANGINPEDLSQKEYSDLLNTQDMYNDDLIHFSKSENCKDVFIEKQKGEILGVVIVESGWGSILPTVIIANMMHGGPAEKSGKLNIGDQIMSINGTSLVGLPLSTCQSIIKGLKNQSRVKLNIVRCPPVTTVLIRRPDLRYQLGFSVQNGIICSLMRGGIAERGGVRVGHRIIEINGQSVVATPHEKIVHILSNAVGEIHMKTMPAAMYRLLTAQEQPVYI
T3 sequence (P11940 whole entry): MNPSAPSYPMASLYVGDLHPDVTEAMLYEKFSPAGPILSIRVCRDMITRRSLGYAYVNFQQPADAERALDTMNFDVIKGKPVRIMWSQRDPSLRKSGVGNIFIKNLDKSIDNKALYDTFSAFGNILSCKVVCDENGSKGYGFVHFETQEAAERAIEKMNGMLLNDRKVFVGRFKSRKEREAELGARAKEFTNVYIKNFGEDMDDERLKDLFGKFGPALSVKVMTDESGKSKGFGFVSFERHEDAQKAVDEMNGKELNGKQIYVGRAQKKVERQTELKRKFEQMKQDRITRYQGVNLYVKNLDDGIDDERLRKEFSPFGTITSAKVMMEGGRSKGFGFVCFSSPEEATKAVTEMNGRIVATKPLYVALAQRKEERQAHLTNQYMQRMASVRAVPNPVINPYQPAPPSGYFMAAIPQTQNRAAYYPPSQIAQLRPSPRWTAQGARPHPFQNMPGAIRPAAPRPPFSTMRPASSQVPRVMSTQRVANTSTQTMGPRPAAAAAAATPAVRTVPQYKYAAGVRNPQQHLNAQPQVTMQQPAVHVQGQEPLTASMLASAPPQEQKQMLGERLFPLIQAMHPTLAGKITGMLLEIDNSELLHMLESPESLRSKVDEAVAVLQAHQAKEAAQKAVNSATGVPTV
Chain of DNA dC->dU-editing enzyme APOBEC-3A (P31941 whole entry): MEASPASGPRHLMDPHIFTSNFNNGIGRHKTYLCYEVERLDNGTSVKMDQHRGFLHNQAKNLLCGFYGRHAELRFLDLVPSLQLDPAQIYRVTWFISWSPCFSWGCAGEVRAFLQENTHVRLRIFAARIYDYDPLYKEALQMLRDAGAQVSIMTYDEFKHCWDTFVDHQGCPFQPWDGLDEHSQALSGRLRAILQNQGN
Chain of Glucose-6-phosphate 1-dehydrogenase (P11413 whole entry): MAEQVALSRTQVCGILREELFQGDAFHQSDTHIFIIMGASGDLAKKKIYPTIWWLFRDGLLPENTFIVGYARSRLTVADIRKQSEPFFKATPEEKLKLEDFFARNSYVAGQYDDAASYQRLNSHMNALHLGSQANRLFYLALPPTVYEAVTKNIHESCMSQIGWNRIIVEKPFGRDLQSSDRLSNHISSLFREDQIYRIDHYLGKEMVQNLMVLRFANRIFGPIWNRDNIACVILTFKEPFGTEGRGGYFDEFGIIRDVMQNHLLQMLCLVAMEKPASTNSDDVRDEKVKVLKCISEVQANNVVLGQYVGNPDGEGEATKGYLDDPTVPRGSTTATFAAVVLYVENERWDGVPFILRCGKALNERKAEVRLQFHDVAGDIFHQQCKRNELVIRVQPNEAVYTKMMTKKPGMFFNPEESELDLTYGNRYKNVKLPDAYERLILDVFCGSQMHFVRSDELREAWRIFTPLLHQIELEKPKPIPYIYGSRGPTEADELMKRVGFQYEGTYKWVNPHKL

SMILES: CCN(CC)C(=O)CSc1nc2cc(OC)c(OC)cc2c(=O)n1Cc1ccc(Cl)cc1
- IC50 (Ephrin type-A receptor 4): > 100 µM (not active)

SMILES: Nc1nc(-c2ccccc2)nn1C(=O)Cc1ccccc1
- IC50 (Prothrombin): 1.51 µM (active)

SMILES: Cc1ccc(SCC(=O)Nc2ccc(N3CCN(C)CC3)c(F)c2)c(C)c1
- IC50 [1]: 5.55 µM (active)
- EC50 [2]: 3.5 µM (active)
- IC50 (cells [3]): > 29.9 µM (inactive)
- EC50 (cells [4]): > 29.9 µM (inactive)

SMILES: O=S(=O)(NCC(Nc1ccccc1)c1ccccc1)c1ccc(Cl)cc1 (centres undefined)
- AC50 [5]: 19 µM (active)
- AC50 [6]: 34.8 µM (active)
- AC50 [7]: 2.15 µM (active)
- AC50 [8]: 2.48 µM (active)
- AC50 [9]: 10.4 µM (active)

SMILES: CCOC(=O)C(NCCc1ccccc1F)(NC(C)=O)C(F)(F)F (centres undefined)
- IC50 [1]: > 29.9 µM (inactive)
- EC50 [2]: 1.84 µM (active)
- IC50 (cells [3]): > 29.9 µM (inactive)
- EC50 (cells [4]): > 29.9 µM (inactive)

SMILES: N#CC1=C(N)N=C(S)C(C(N)=O)C1c1ccc([N+](=O)[O-])cc1 (centres undefined)
- IC50 [10]: 5.63 µM (active)
- IC50 [11]: > 50 µM (inactive)
- IC50 [12]: > 66 µM (inactive)
- IC50 [13]: > 66 µM (inactive)

SMILES: C[C@H](NC(=O)c1ccccc1)C(=O)OCC(=O)c1c[nH]c2ccccc12
- IC50 [1]: 7.13 µM (active)
- EC50 [2]: 3.28 µM (active)
- IC50 (cells [3]): > 29.9 µM (inactive)
- EC50 (cells [4]): > 29.9 µM (inactive)

SMILES: Cc1cc(C)c(CN2CCN(C(=O)Cn3ccc(NC(=O)OCc4ccccc4)nc3=O)CC2)c(C)c1
- AC50 [5]: 26.8 µM (active)
- AC50 [6]: 4.37 µM (active)
- AC50 [9]: > 70 µM (inactive)

SMILES: Cc1csc(NC(=O)CSc2nnc(NC(=O)NC(C)(C)C)s2)n1
- AC50 [14]: > 100 µM (inactive)

SMILES: CCC1=NN(C(=O)c2ccccc2Br)C(O)(c2ccc(Br)cc2)C1 (centres undefined)
- AC50 [14]: > 100 µM (inactive)

SMILES: Cc1cc(C)c2c(=O)n(CC(=O)Nc3cccc(F)c3)sc2n1
- IC50 [10]: 8.62 µM (active)
- IC50 [11]: > 50 µM (inactive)
- IC50 [15]: 22.1 µM (inactive)
- IC50 [16]: > 100 µM (inactive)
- IC50 [17]: 4.35 µM (active)

SMILES: Oc1nc2ccc(Cl)cc2c(-c2ccccc2)c1N1CCOCC1
- IC50 (Prothrombin): > 50 µM (not active)
